Data set [1] in a line: reversed-phase LC retention time (C18, 15 min MeOH gradient); higher = more hydrophobic / later elution.
Data set [2] is described as follows: collision cross section (TIMS, N2 drift gas) of the primary ion; higher = larger gas-phase ion size.
[3] abbreviates: ionization mode: ESI+, ion species: [M+H]+.
Setting [4] is: ionization mode: ESI-, ion species: [M-H]-.
The mark [5] stands for this setting: ionization mode: ESI+, ion species: [M]+.

As for `CCOCCN(C(=O)CCl)C(=C(C)C)c1ccccc1` [Pethoxamid], in data set [1] (setting [3]), the “reversed-phase LC retention time” value was 14.9 min. This compound yielded a collision cross section in data set [2] (setting [3]) of 166.72 Å².
For the compound `CC1CCN(CCCC(=O)c2ccc(F)cc2)CC1` [Melperon], in data set [1] (setting [3]), the “reversed-phase LC retention time” value turned out to be 9.83 min. In data set [2] (setting [3]), this compound displayed a collision cross section of 163.5 Å².
As to `C[C@]12CCC3=C4CCC(=O)C=C4CC[C@H]3[C@@H]1CC[C@@]2(O)CC#N` [Dienogest], the “reversed-phase LC retention time” value in data set [1] (setting [3]) came out at 12.6 min. Moreover, in data set [2] (setting [3]), the collision cross section is 175.13 Å².
In the case of `Cc1nccn1CC1CCc2c(c3ccccc3n2C)C1=O` (configuration not stated) [Ondansetron], the “reversed-phase LC retention time” value in data set [1] (setting [3]) was determined as 9.49 min. The collision cross section in data set [2] (setting [3]) turned out to be 173.57 Å².
Regarding `CCC(C)(c1ccc(O)cc1)c1ccc(O)cc1` [Bisphenol B], the “reversed-phase LC retention time” value in data set [1] (setting [4]) is 14.3 min. The collision cross section in data set [2] (setting [4]) was 165.01 Å².
On to `COc1cc(NS(=O)(=O)c2ccc(N)cc2)nc(OC)n1` [Sulfadimethoxine], for which the “reversed-phase LC retention time” value came out at 9.96 min in data set [1] (setting [3]) and 6.81 min in data set [1] (setting [4]). The results for the collision cross section in data set [2] (setting [3]) and in data set [2] (setting [4]) were 170.07 Å² and 170.58 Å², respectively.
Consider `CC(C)COC(=O)c1ccccc1C(=O)O` [Mono-iso-butyl-phthalate], for which the “reversed-phase LC retention time” value in data set [1] (setting [4]) worked out at 10.2 min. The collision cross section in data set [2] (setting [4]) turned out to be 151.15 Å².
In the same order, the values of `Cc1cc(O)ccc1Cl` [p-Chlorocresol] are 11.6 min and 122.21 Å².
As for `CS(=O)(=O)c1ccc(C(=O)C2C(=O)CCCC2=O)c(Cl)c1` [Sulcotrione], the “reversed-phase LC retention time” value in data set [1] (setting [3]) amounted to 11.1 min; in data set [1] (setting [4]) it was 6.87 min. For the same compound, the results for the collision cross section in data set [2] (setting [3]) and in data set [2] (setting [4]) were 175.92 Å² and 173.26 Å², respectively.
As to `C#CCN1C(=O)COc2cc(F)c(N3C(=O)C4=C(CCCC4)C3=O)cc21` [Flumioxazin], the “reversed-phase LC retention time” value in data set [1] (setting [3]) is 13.5 min. Moreover, the collision cross section in data set [2] (setting [3]) was determined as 188.98 Å².
In the case of `CCCCCCCCCCCCCC[N+](C)(C)C` [Tetradecyltrimethylammonium], the “reversed-phase LC retention time” value in data set [1] (setting [5]) came out at 16.5 min. In addition, the collision cross section in data set [2] (setting [5]) is 187.45 Å².
Regarding `CCN(CC)c1ccc2c(C)cc(=O)oc2c1` [7-Diethylamino-4-methylcoumarin], the “reversed-phase LC retention time” value in data set [1] (setting [3]) worked out at 14.3 min. In data set [2] (setting [3]), this compound returned a collision cross section of 152.41 Å².
Turning to `Nc1nc(N)nc(NC2CC2)n1` [Cyromazine], the “reversed-phase LC retention time” value in data set [1] (setting [3]) amounted to 3.4 min. In data set [2] (setting [3]), the collision cross section is on record as 134.76 Å².
Consider `CC[C@H]1OC(=O)C[C@@H](O)[C@H](C)[C@@H](O[C@@H]2O[C@H](C)[C@@H](O[C@H]3C[C@@](C)(O)[C@@H](O)[C@H](C)O3)[C@H](N(C)C)[C@H]2O)[C@@H](CC=O)C[C@@H](C)C(=O)/C=C/C(C)=C/[C@@H]1CO[C@@H]1O[C@H](C)[C@@H](O)[C@@H](OC)[C@H]1OC` [Tylosin], for which the “reversed-phase LC retention time” value in data set [1] (setting [3]) worked out at 13 min; in data set [1] (setting [4]), 15.6 min. For the same compound, the collision cross section in data set [2] (setting [3]) was 282.55 Å²; in data set [2] (setting [4]), 293.81 Å².
For `CN(C)CCC=C1c2ccccc2CCc2ccccc21` [Amitriptyline], in data set [1] (setting [3]), the “reversed-phase LC retention time” value is 13.1 min. The compound further yielded a collision cross section in data set [2] (setting [3]) of 167.84 Å².
For `CNCCC(Oc1ccc(C(F)(F)F)cc1)c1ccccc1` (configuration not stated) [Fluoxetine] the same measures were 13.4 min and 177.66 Å².
`COc1cc2c(c3oc(=O)c4c(c13)CCC4=O)C1C=COC1O2` (configuration not stated) [Aflatoxin B1]: in data set [1] (setting [3]), the “reversed-phase LC retention time” value turned out to be 11.4 min. In addition, the collision cross section in data set [2] (setting [3]) is on record as 165.23 Å².
Regarding `CC(C)c1ccc(NC(=O)N(C)C)cc1` [Isoproturon], the “reversed-phase LC retention time” value in data set [1] (setting [3]) is 13 min. Further, in data set [2] (setting [3]), the collision cross section worked out at 151.88 Å².
Take `COc1ccc2cc(C(C)C(=O)O)ccc2c1` (configuration not stated) [Naproxen]: the “reversed-phase LC retention time” value in data set [1] (setting [3]) was determined as 13.8 min. The compound also returned a collision cross section in data set [2] (setting [3]) of 151.76 Å².
In the case of `CCNc1nc(=O)nc(NC(C)(C)C)[nH]1` [Terbuthylazine-2-hydroxy], the “reversed-phase LC retention time” value in data set [1] (setting [4]) was 12.4 min. In addition, the collision cross section in data set [2] (setting [4]) is listed as 151.91 Å².
Take `CC1COc2c(N3CCN(C)CC3)c(F)cc3c(=O)c(C(=O)O)cn1c23` (configuration not stated) [Ofloxacin]: the “reversed-phase LC retention time” value in data set [1] (setting [3]) was found to be 7.93 min. This compound also had a collision cross section in data set [2] (setting [3]) of 182.54 Å².
With `Nc1cccc2cc(S(=O)(=O)O)ccc12` [5-Aminonaphthalene-2-sulfonic acid], the “reversed-phase LC retention time” value in data set [1] (setting [4]) was determined as 4.88 min. For the same compound, in data set [2] (setting [4]), the collision cross section amounted to 147.46 Å².
Turning to `CCCCCCCCCCC[C@@H](C[C@@H]1OC(=O)[C@H]1CCCCCC)OC(=O)[C@H](CC(C)C)NC=O` [Orlistat], the “reversed-phase LC retention time” value in data set [1] (setting [4]) is 19.9 min. In data set [2] (setting [4]), this compound came in with a collision cross section of 232.61 Å².
As to `CN(C)Cc1cc(C(C)(C)C)c(O)c(C(C)(C)C)c1` [2,6-Di-tert-Butyl-4-(dimethylamino)methylphenol], the results for the “reversed-phase LC retention time” value in data set [1] (setting [3]) and in data set [1] (setting [4]) were 12.7 min and 17.1 min, respectively. For the same compound, the collision cross section in data set [2] (setting [3]) is recorded as 176.35 Å²; in data set [2] (setting [4]) it was 173.06 Å².
`O=P(OC(CCl)CCl)(OC(CCl)CCl)OC(CCl)CCl` [TDCPP]: the “reversed-phase LC retention time” value in data set [1] (setting [3]) worked out at 15.5 min. Further, the collision cross section in data set [2] (setting [3]) came out at 177.62 Å².
Regarding `CC(C1=C(CCN(C)C)Cc2ccccc21)c1ccccn1` (configuration not stated) [Dimethindene], the “reversed-phase LC retention time” value in data set [1] (setting [3]) came out at 10.4 min. This compound also returned a collision cross section in data set [2] (setting [3]) of 171.03 Å².
For the compound `CCCCC(=O)N(Cc1ccc(-c2ccccc2-c2nn[nH]n2)cc1)C(C(=O)O)C(C)C` (configuration not stated) [Valsartan], the entries for the “reversed-phase LC retention time” value in data set [1] (setting [3]) and in data set [1] (setting [4]) were 14.4 min and 11.8 min, respectively. In addition, the collision cross section in data set [2] (setting [3]) turned out to be 204.42 Å²; in data set [2] (setting [4]), 203.89 Å².
For the compound `COP(=O)(OC)OC=C(Cl)Cl` [Dichlorvos], the “reversed-phase LC retention time” value in data set [1] (setting [3]) turned out to be 9.07 min. The compound further displayed a collision cross section in data set [2] (setting [3]) of 139.26 Å².
For `O=S(=O)(O)NC1CCCCC1` [Cyclamate], the “reversed-phase LC retention time” value in data set [1] (setting [4]) was 6.16 min. Also, the collision cross section in data set [2] (setting [4]) was found to be 138.05 Å².
On to `CC(=O)C1(O)CCC2C3CCC4=CC(=O)CCC4(C)C3CCC21C` (stereo not drawn) [17alpha-Hydroxyprogesterone], for which the “reversed-phase LC retention time” value was determined as 14.5 min in data set [1] (setting [3]) and 14.8 min in data set [1] (setting [4]). For the same compound, the collision cross section is on record as 183.52 Å² in data set [2] (setting [3]) and 185.03 Å² in data set [2] (setting [4]).
Consider `CC(=O)N1CCN(c2ccc(OC[C@H]3CO[C@](Cn4ccnc4)(c4ccc(Cl)cc4Cl)O3)cc2)CC1` [Ketoconazole], for which the “reversed-phase LC retention time” value in data set [1] (setting [3]) was found to be 13.2 min. In data set [2] (setting [3]), this compound displayed a collision cross section of 216.99 Å².
As to `CNC(=O)CSP(=S)(OC)OC` [Dimethoate], in data set [1] (setting [3]), the “reversed-phase LC retention time” value came out at 9.08 min. Also, in data set [2] (setting [3]), the collision cross section stood at 141.81 Å².
Consider `Oc1c(Br)cc(Br)cc1Br` [2,4,6-Tribromophenol], for which the “reversed-phase LC retention time” value in data set [1] (setting [4]) is 12.8 min. Moreover, the collision cross section in data set [2] (setting [4]) was found to be 133.11 Å².
For `O=C(O)C1C(C(=O)O)C2(Cl)C(Cl)=C(Cl)C1(Cl)C2(Cl)Cl` (configuration not stated) the same measures were 10.3 min and 159.01 Å².
Consider `CCCN(CCOc1c(Cl)cc(Cl)cc1Cl)C(=O)n1ccnc1` [Prochloraz], for which the “reversed-phase LC retention time” value in data set [1] (setting [3]) came to 15.7 min. In data set [2] (setting [3]), the collision cross section amounted to 183.61 Å².
`COCC(C)N(C(=O)CCl)c1c(C)csc1C` (configuration not stated) [Dimethenamid]: in data set [1] (setting [3]), the “reversed-phase LC retention time” value stood at 14 min. Besides, the collision cross section in data set [2] (setting [3]) is listed as 155.6 Å².
In the case of `O=C(c1ccccc1)c1ccc(O)cc1` [4-Hydroxybenzophenone], the “reversed-phase LC retention time” value in data set [1] (setting [4]) amounted to 12 min. The compound further registered a collision cross section in data set [2] (setting [4]) of 144.47 Å².
`CCCCCCCCCCCC(=O)N(CCO)CCO` [Lauryl diethanolamide]: the “reversed-phase LC retention time” value in data set [1] (setting [3]) was found to be 16.4 min. In addition, the collision cross section in data set [2] (setting [3]) was determined as 185.96 Å².
As to `O=C(Nc1ccccc1)Nc1ccccc1` [1,3-Diphenylurea], the “reversed-phase LC retention time” value in data set [1] (setting [3]) worked out at 12.4 min. Besides, the collision cross section in data set [2] (setting [3]) was determined as 148.26 Å².
With `CCOC(=O)c1ccc(N(C)C)cc1` [Ethyl 4-(dimethylamino)benzoate], in data set [1] (setting [3]), the “reversed-phase LC retention time” value amounted to 14.2 min. Moreover, the collision cross section in data set [2] (setting [3]) was 148.66 Å².

The record behind these values is the supplement of paper PMC12613149.
